In general, melting point refers to the temperature, or range, at which the solid turns liquid. The term IC50 denotes the concentration that gives 50% inhibition.

Data set [1] has as its system gastric epithelial adenocarcinoma (AGS) cells. The experiment in a line: Antiproliferative assay (MTT reduction), AGS. The class given is cell-based. The settings on record: Homo sapiens, 72 h, 3 days treatment, read-out: IC50 ± SD, AGS. How it is done: (§1) All human cell lines used in this work were purchased from the American Type Culture Collection (ATCC, Manasas, VA, USA). Normal lung MRC-5 fibroblasts (CCL-171), SK-MES-1 lung cancer cells (HTB-58) and J82 bladder carcinoma cells (HTB-1) were grown as monolayers in minimum essential Eagle medium (MEM) with Earles’s salts, 2 mM L-glutamine and 1.5 g/L sodium bicarbonate. Gastric adenocarcinoma AGS cells (CRL-1739) were grown as monolayers in Ham F-12 medium containing 1 mM L-glutamine and 1.5 g/L sodium bicarbonate. Promyelocytic leukemia HL-60 cells (CCL-240) were grown in suspension in RPM1 medium containing 1 mM sodium pyruvate and 2.0 g/L sodium bicarbonate. All media were supplemented with 10% heat-inactivated FBS, 100 IU/mL penicillin and 100 µg/mL streptomycin. Cells were grown in a humidified incubator with 5% CO2 in air at 37 °C. For the antiproliferative assay, adherent cells were plated at a density of 5 × 10^4 cells/mL and HL-60 cells at 30 × 10^4 cells/mL. Cells were seeded in 96-well plates (100 µL/well). One day after seeding, cells were treated with medium containing the compounds at concentrations ranging from 0 up to 100 µM during 3 days. The compounds were dissolved in DMSO (1% final concentration) and complete medium. Untreated cells (medium containing 1% DMSO) were used as 100% viability controls. […] Each concentration was tested in sextuplicate and experiments were repeated 2 times. Cell viability was determined by means of the MTT reduction assay at the end of the incubation with the products. The results were transformed to percentage of controls and the IC50 values were graphically obtained from the dose-response curves.

Data set [2] concerns bladder carcinoma (J82) cells. The experiment in a line: Antiproliferative assay (MTT reduction), J82. The class given is cell-based. Particulars: Homo sapiens, 72 h, 3 days treatment, read-out: IC50 ± SD, J82. How it is done: as §1
Data set [3] has as its system normal lung fibroblasts (MRC-5). The experiment in a line: Antiproliferative assay (MTT reduction), MRC-5. The class given is cell-based, human. The settings on record: Homo sapiens, MRC5, 72 h; MRC-5 normal lung fibroblasts, 3 days treatment, MTT; read-out: IC50 ± SD, MRC-5. On the procedure:
(§2) All human cell lines used in this work were purchased from the American Type Culture Collection (ATCC, Manasas, VA, USA). […] Promyelocytic leukemia HL-60 cells (CCL-240) were grown in suspension in RPM1 medium containing 1 mM sodium pyruvate and 2.0 g/L sodium bicarbonate. All media were supplemented with 10% heat-inactivated FBS, 100 IU/mL penicillin and 100 µg/mL streptomycin. […] For the antiproliferative assay, adherent cells were plated at a density of 5 × 10^4 cells/mL and HL-60 cells at 30 × 10^4 cells/mL. Cells were seeded in 96-well plates (100 µL/well). One day after seeding, cells were treated with medium containing the compounds at concentrations ranging from 0 up to 100 µM during 3 days. The compounds were dissolved in DMSO (1% final concentration) and complete medium. Untreated cells (medium containing 1% DMSO) were used as 100% viability controls. […] Each concentration was tested in sextuplicate and experiments were repeated 2 times. Cell viability was determined by means of the MTT reduction assay at the end of the incubation with the products.
For orientation: Formazan colour is commonly taken as a measure of viable cells.

The test system of data set [4] is promyelocytic leukemia (HL-60) cells. The experiment in a line: Antiproliferative assay (MTT reduction), HL-60. Particulars: Homo sapiens, 72 h, HL-60 promyelocytic leukemia cells, 3 days treatment, read-out: IC50 ± SD, HL-60. The class given is cell-based. On the procedure:
as §2

For data set [5], the system named is lung cancer (SK-MES-1) cells. The experiment in a line: Antiproliferative assay (MTT reduction), SK-MES-1. The settings on record: Homo sapiens, 72 h, SK-MES-1 lung cancer cells, 3 days treatment, read-out: IC50 ± SD, SK-MES-1. The format is cell-based. How it is done: as §2
The test system of data set [6] is MRC-5, AGS, HL-60, SK-MES-1 and J82 cells. The experiment in a line: Antiproliferative assay (MTT reduction), all cell lines together. Particulars: Homo sapiens; range over MRC-5, AGS, SK-MES-1, J82 and HL-60. The format is cell-based, human. How it is done:
as §1

The molecule `Cc1ccc(S(=O)(=O)n2cc(CCC(=O)O[C@H]3CC[C@@]4(C)C(CC[C@]5(C)C4CC=C4[C@@H]6CC(C)(C)CC[C@]6(C(=O)O)CC[C@]45C)C3(C)C)nn2)cc1` (some centres unmarked) [Compound 11] gave a melting point of 163 °C. Moreover, the IC50 in data set [1] was determined as 10.8 ± 0.6 µM. In data set [2], the IC50 turned out to be 47.1 ± 2.9 µM. In data set [3], the IC50 was 14.1 ± 0.8 µM. For the same molecule, the IC50 in data set [4] amounted to 15.9 ± 1.5 µM. Also, the IC50 in data set [5] amounted to 21.4 ± 1.3 µM. The molecule also gave an IC50 in data set [6] of 10.8 to 47.1 µM.

In turn, `Cc1ccc(S(=O)(=O)n2cc(CCCC(=O)O[C@H]3CC[C@@]4(C)C(CC[C@]5(C)C4CC=C4[C@@H]6CC(C)(C)CC[C@]6(C(=O)O)CC[C@]45C)C3(C)C)nn2)cc1` (some centres unmarked) [Compound 15] showed a melting point of 186 °C. Further, the IC50 in data set [1] was determined as 22.2 ± 1.6 µM. For the same molecule, the IC50 in data set [2] came out at 14.3 ± 0.6 µM. In addition, the IC50 in data set [3] turned out to be 17.1 ± 1 µM. Besides, in data set [4], the IC50 worked out at 11.5 ± 1 µM. In addition, in data set [5], the IC50 was 11.9 ± 0.6 µM. In addition, in data set [6], the IC50 was 11.5 to 22.2 µM.
